Like-named read-outs stand apart in the source and are kept apart here.
What was measured:
AChE (Abcam) = AChE (Abcam) (UniProt O42275); assay: Inhibition of purified standard AChE (Abcam); type: biochemical
Method: AChE activity was determined by Ellman's method. For each 96-well, 50 μl of 3 mM ATCh and 50 μl of 3 mM Ellman's reagent DTNB solution was added. After 10 minutes of incubation at room temperature, average absorbance at 412 nm was determined. […] The diluted solutions were then added individually into 96-well microplates with Hi5 cells infected by the seven recombinant viruses (vDmAChE, vHsAChE, vRnAChE, vAmAChE, vSfAChE, DamAChE, and vBdAChE). […] After 10 minutes of incubation at room temperature, residual activity was determined with a microplate reader at 412 nm.

[1] = molecular target: commercialized AChE (Sichen) (Musca domestica, UniProt Q7YWJ9); assay: Inhibition of commercial AChE kit (Sichen), cuvette; type: biochemical, fly
Method: (§1) Hi5 cells were infected with AChE-FL-bac (FL), AChE-6MC-bac (6MC) or WT-bac (WT) respectively, for 3 days. After the removal of media, the cells were subjected to a 5-hour lyophilization in the 96-well plates. Two OP and two CB insecticide compounds were serial-diluted and added to the infected cell samples, as well as a 100 mU/mL AChE (ST, Abcam) in 96-well plates and the commercialized AChE (Sichen) in cuvette for a further comparison. AChE activities were analyzed for all these sample in order to determine the sensitivities of these AChE to different insecticides. DMSO with different concentrations in DPBS were added to determine the background effects. Pesticides tested are: (a) paraoxon ethyl, (b) malaoxon, (c) carbofuran (d) carbaryl.
Acetylcholinesterase Assay Kit (standard AChE) was purchased from Abcam. Rapid Bioassay of Pesticides Residues Reagent Kit (commercial AChE) was purchased from Sichen.
The acetylcholinesterase stock solution was diluted into 50 units/mL in assay buffer at ratio 1:50 to generate 1000 mU/mL acetylcholinesterase standard solution. Then, the 1000 mU/mL acetylcholinesterase standard solution was further diluted into 300, 100, 30, 10, 3, 1 and 0 mU/mL for determining the average absorbance of each standard. The reading of each standard was plotted as a function of the amount of acetylcholinesterase to establish a standard curve, and the corresponding amount of AChE in each test samples was calculated by the derived linear equation. To calculate the inhibition of AChEs activity (%), vCont-Bac infected cells (without expression of AChE on the surface) served as the negative control, whereas Abcam purified protein, Sichen commercial protein, vAChE-FL and vAChE-6MC infected cells without pesticide incubation served as the positive control. The activity of the positive control was considered 100%.
The remaining activity of AChE is evaluated by the following equation:
Inhibition of AChEs activity (%)(ΔA0−ΔAS)/ΔA0)×100
(§2) In which, ΔA0 indicates the change of absorbance of the positive control, and ΔAS indicates the change of absorbance of the applied pesticide incubated solution.
As for a comparison, the test results using the most common AChE insecticide diagnostic kit in Taiwan sold by Sichen Inc. were also included, and the IC50 for all of the test samples were also calculated (Table 1). For Sichen, since they acquire the AChE from fly, also they have to use cuvette (1 mL) for measurement, thus high quantity of AChE should be used. […] In the present application, however, there are no need for fly rearing and no need for AChE purification. 96-well plate was applied, which requires only 100 μL solution for detection, and easily to handle, and can be read by bare eye for the detection of residue pesticides.

[2] = molecular target: T1, AChE-6MC (truncated AChE Y408F fused with TM and CTD of baculovirus GP64, displayed on Hi5 cells) (Drosophila melanogaster, UniProt P07140, R99G/Y408F); assay: Inhibition of cell-surface displayed AChE-6MC (Ellman's method, ATCh/DTNB, 412 nm); type: biochemical
T1 construct: honeybee mellitin signal peptide (HM) (N); expressed in transfected cells; host or cells: Trichoplusia ni High Five (Hi5) cells infected with recombinant baculovirus vAChE-6MC, lyophilised in the plate
Method: as §1
(§3) AChE activity was determined by Ellman's method. For each 96-well, 50 μl of 3 mM ATCh and 50 μl of 3 mM Ellman's reagent DTNB solution was added. After 10 minutes of incubation at room temperature, average absorbance at 412 nm was determined. […] The diluted solutions were then added individually into 96-well microplates with Hi5 cells infected by the seven recombinant viruses (vDmAChE, vHsAChE, vRnAChE, vAmAChE, vSfAChE, DamAChE, and vBdAChE). After incubation for 10 minutes, substrate ATCh and DTNB solution were added to the reaction mixture. After 10 minutes of incubation at room temperature, residual activity was determined with a microplate reader at 412 nm.
(§4) The acetylcholinesterase stock solution was diluted into 50 units/mL in assay buffer at ratio 1:50 to generate 1000 mU/mL acetylcholinesterase standard solution. Then, the 1000 mU/mL acetylcholinesterase standard solution was further diluted into 300, 100, 30, 10, 3, 1 and 0 mU/mL for determining the average absorbance of each standard. The reading of each standard was plotted as a function of the amount of acetylcholinesterase to establish a standard curve, and the corresponding amount of AChE in each test samples was calculated by the derived linear equation. […]
(§5) The remaining activity of AChE is evaluated by the following equation: […]
as §2
(§6) As for a comparison, the test results using the most common AChE insecticide diagnostic kit in Taiwan sold by Sichen Inc. were also included, and the IC50 for all of the test samples were also calculated (Table 1). For Sichen, since they acquire the AChE from fly, also they have to use cuvette (1 mL) for measurement, thus high quantity of AChE should be used. […] 96-well plate was applied, which requires only 100 μL solution for detection, and easily to handle, and can be read by bare eye for the detection of residue pesticides.

[3] = molecular target: T2, AChE-FL (full-length AChE Y408F displayed on Hi5 cells) (Drosophila melanogaster, UniProt P07140, R99G/Y408F); assay: Inhibition of cell-surface displayed AChE-FL (Ellman's method, ATCh/DTNB, 412 nm); type: biochemical
T2 construct: honeybee mellitin signal peptide (HM) (N); expressed in transfected cells; host or cells: Trichoplusia ni High Five (Hi5) cells infected with recombinant baculovirus vAChE-FL, lyophilised in the plate
Method: as §1, §3, §4, §5, §2, §6

[4] = read-out: IC50 of OP and CB towards AChEs, Abcam; 100 mU/mL purified AChE standard, 96-well plate
[5] = commercialized AChE kit, cuvette (1 mL), read-out: IC50 of OP and CB towards AChEs, Sichen
[6] = Hi5 cells infected with vAChE-6MC, 3 days, lyophilized 5 h, 96-well plate, read-out: IC50 of OP and CB towards AChEs, AChE-6MC
[7] = Hi5 cells infected with vAChE-FL, 3 days, lyophilized 5 h, 96-well plate, read-out: IC50 of OP and CB towards AChEs, AChE-FL

Row | Compound | IC50 (AChE (Abcam); [4]) [nM] | IC50 [1] [nM] | IC50 [2] [nM] | IC50 [3] [nM] | IC50 (AChE (Abcam); 100 mU/mL purified AChE standard, 96-well plate; read-out: IC50 of OP and CB towards AChEs, Abcam) [nM] | IC50 [1, 5] [nM] | IC50 [2, 6] [nM] | IC50 [3, 7] [nM]
1 | CNC(=O)Oc1cccc2ccccc12 [Carbaryl, carbaryl] | 6500 | 5900 | 650 | 6800 |  |  |  | 
2 | CNC(=O)Oc1cccc2c1OC(C)(C)C2 [Carbofuran, carbofuran] |  |  |  |  | 540 | 2800 | 4500 | 48000
3 | CCOC(=O)CC(SP(=O)(OC)OC)C(=O)OCC (stereo not drawn) [Malaoxon, malaoxon] | 820 | 950 | 62 | 560 |  |  |  | 
4 | CCOP(=O)(OCC)Oc1ccc([N+](=O)[O-])cc1 [Paraoxon ethyl, paraoxon ethyl] |  |  |  |  |  | 2300 | 55 | 490
